Some test systems named below: SNB-75 CNS; M14 melanoma; A498 renal; HCT-116 colon; A549 NSCLC; CAKI-1 renal; HOP-62 NSCLC; TK-10 renal; UACC-257 melanoma; HCC-2998 colon.
Holding throughout (experiment): growth of human tumour cells (NCI), 48 h

SMILES strings stand for the structures.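 How tested: cells in 96-well plates exposed to compound for 48 hours at five concentrations. The concentration for 50% growth inhibition is given as GI50. At the TGI there is no net growth.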

`O=S1(=O)CS(=O)(=O)OCCCO1`: the TGI in the experiment on SNB-75 CNS, with M14 melanoma, in the experiment on A498 renal, with HCT-116 colon, in the experiment on A549 NSCLC and with CAKI-1 renal was above 100 µM throughout. Moreover, the TGI in the experiment with HOP-62 NSCLC, in the experiment with TK-10 renal, with UACC-257 melanoma and in the experiment with HCC-2998 colon was above 100 µM each time.
Turning to `COc1ccc2c(=O)c3cc([N+](=O)[O-])ccc3n(C)c2c1`, the TGI in the experiment with SNB-75 CNS, with M14 melanoma, with A498 renal, with A549 NSCLC, in the experiment with CAKI-1 renal and in the experiment on TK-10 renal was above 100 µM each time. Besides, the TGI in the experiment with UACC-257 melanoma and in the experiment with HCC-2998 colon was above 100 µM in each case.
Turning to `COc1c(CNC(=O)CCl)cc2[nH]c(C)cc2c1CNC(=O)CCl`, the GI50 was 6.43 µM in the experiment on SNB-75 CNS; 4.29 µM in the experiment on A498 renal; 2.93 µM with HCT-116 colon; 7.38 µM with A549 NSCLC; 6.73 µM with CAKI-1 renal; 6.1 µM in the experiment with HOP-62 NSCLC. For the same compound, the GI50 with TK-10 renal was 9.17 µM; in the experiment with UACC-257 melanoma it was 6.8 µM; in the experiment on HCC-2998 colon, 13.2 µM. Further, the TGI with SNB-75 CNS turned out to be 33 µM; in the experiment with A498 renal, 19.1 µM; with HCT-116 colon it was 15.7 µM; in the experiment with A549 NSCLC, 26.7 µM; in the experiment on CAKI-1 renal, 37 µM; in the experiment on HOP-62 NSCLC, 20.2 µM. Besides, the TGI in the experiment with TK-10 renal amounted to 56.7 µM; with UACC-257 melanoma, 36.5 µM; with HCC-2998 colon, 30.4 µM.
As to `COc1cc([C@@H]2c3cc4c(cc3[C@@H](O[C@@H]3O[C@@H]5CO[C@@H](c6cccs6)O[C@H]5[C@H](O)[C@H]3O)[C@H]3COC(=O)[C@H]23)OCO4)cc(OC)c1O`, the GI50 with SNB-75 CNS is 0.104 µM; with M14 melanoma, 0.267 µM; with A498 renal, 0.284 µM; in the experiment on HCT-116 colon, 0.344 µM; in the experiment with A549 NSCLC, 0.0969 µM; with CAKI-1 renal it was 0.557 µM. For the same compound, the results for the GI50 with HOP-62 NSCLC, in the experiment with UACC-257 melanoma and in the experiment with HCC-2998 colon were 0.197 µM, 0.796 µM and 0.385 µM, respectively. For the same compound, the TGI with SNB-75 CNS came to 1.56 µM; in the experiment on M14 melanoma, 2.95 µM; in the experiment on A498 renal, 2.2 µM; in the experiment with HCT-116 colon, 4.81 µM; with A549 NSCLC, 2.56 µM; in the experiment with CAKI-1 renal, 24.2 µM. Also, the figures for the TGI in the experiment with HOP-62 NSCLC, with UACC-257 melanoma and with HCC-2998 colon were 2.34 µM, 10.5 µM and 2.02 µM, respectively.
For `CCN(CC)CCNC(=O)c1cccc2cc3ccccc3nc12`, the TGI in the experiment on SNB-75 CNS was 21.6 µM; in the experiment on M14 melanoma, 21.7 µM; in the experiment on A498 renal, 22.2 µM; in the experiment on HCT-116 colon it was 21.8 µM; in the experiment with A549 NSCLC, above 100 µM; with CAKI-1 renal it was above 100 µM. Also, the TGI came out at 36.9 µM in the experiment on HOP-62 NSCLC, 31.8 µM with TK-10 renal and 25.9 µM in the experiment on HCC-2998 colon.
`COC(=O)[C@@]1(C)CC[C@]2(C)CC[C@]3(C)C4=CC=C5C(=CC(=O)C(O)=C5C)[C@]4(C)CC[C@@]3(C)[C@@H]2C1`: the GI50 is 0.313 µM in the experiment on SNB-75 CNS; 0.198 µM in the experiment with M14 melanoma; 0.333 µM with A498 renal; 0.163 µM in the experiment with HCT-116 colon; 1.21 µM in the experiment on A549 NSCLC; 0.483 µM in the experiment on HOP-62 NSCLC. Further, the GI50 with TK-10 renal was 0.185 µM; with UACC-257 melanoma it was 0.279 µM; in the experiment with HCC-2998 colon, 0.21 µM. Also, the TGI in the experiment with SNB-75 CNS worked out at 0.854 µM; in the experiment on M14 melanoma it was 0.49 µM; with A498 renal it was 0.938 µM; with HCT-116 colon, 0.32 µM; with A549 NSCLC, 2.54 µM; in the experiment on HOP-62 NSCLC it was 1.54 µM. The TGI was determined as 0.449 µM in the experiment with TK-10 renal, 0.767 µM in the experiment on UACC-257 melanoma and 0.474 µM in the experiment on HCC-2998 colon.
As to `COc1ccc(Cc2cnc(NC(=O)c3sc4ccccc4c3Cl)s2)cc1`, the GI50 in the experiment with SNB-75 CNS was 0.2 µM; in the experiment with A498 renal, 0.222 µM; with HCT-116 colon, 0.408 µM; in the experiment with A549 NSCLC, 0.571 µM; in the experiment with CAKI-1 renal it was 0.487 µM; with HOP-62 NSCLC, 0.513 µM. For the same compound, the GI50 with TK-10 renal was 4.31 µM; with UACC-257 melanoma, 25.7 µM; in the experiment with HCC-2998 colon, 0.547 µM. The TGI with SNB-75 CNS was above 100 µM; in the experiment with A498 renal it was 12.7 µM; in the experiment with HCT-116 colon, above 100 µM; in the experiment with A549 NSCLC, above 100 µM; with CAKI-1 renal, above 100 µM; with HOP-62 NSCLC it was above 100 µM. Also, the TGI in the experiment with TK-10 renal, with UACC-257 melanoma and in the experiment on HCC-2998 colon was above 100 µM throughout.
As for `C/C(=N/NC(=O)C(N)=O)C(CC(C(=O)Nc1ccccc1C)/C(C)=N\NC(=O)C(N)=O)C(=O)Nc1ccccc1C` (centres undefined), the TGI in the experiment with SNB-75 CNS, in the experiment on M14 melanoma, with A498 renal, with A549 NSCLC, with CAKI-1 renal and with HOP-62 NSCLC was above 100 µM each time. The TGI in the experiment with TK-10 renal, in the experiment with UACC-257 melanoma and in the experiment with HCC-2998 colon was above 100 µM in each case.
With `CN(c1ccccc1)C1C(=O)N(c2ccccc2)C1/C=C/c1ccccc1` (centres undefined), the TGI in the experiment with SNB-75 CNS, in the experiment on A498 renal, in the experiment with HCT-116 colon, in the experiment on A549 NSCLC, in the experiment with CAKI-1 renal and in the experiment with TK-10 renal was above 100 µM in each case. The TGI with UACC-257 melanoma and in the experiment with HCC-2998 colon was above 100 µM each time.
In the case of `COc1cc(C2CC(c3cc(C)ccc3C)=NN2c2ccc(S(=O)(=O)NC(=O)NCc3ccccc3)cc2)cc(OC)c1OC` (centres undefined), the GI50 was 2.33 µM with SNB-75 CNS; 3.09 µM with A498 renal; 3.21 µM in the experiment on HCT-116 colon; 3.31 µM with A549 NSCLC; 3.17 µM in the experiment with CAKI-1 renal; 4.3 µM with HOP-62 NSCLC. Further, the results for the GI50 with TK-10 renal, in the experiment on UACC-257 melanoma and with HCC-2998 colon were 4.74 µM, 3.53 µM and 2.63 µM, respectively. Further, the TGI is 9.32 µM with SNB-75 CNS; 9.03 µM in the experiment on A498 renal; above 100 µM in the experiment with HCT-116 colon; 14.4 µM in the experiment with A549 NSCLC; 19.9 µM in the experiment on CAKI-1 renal; 37.1 µM in the experiment with HOP-62 NSCLC. The TGI in the experiment on TK-10 renal turned out to be 31 µM; with UACC-257 melanoma it was 20.1 µM; with HCC-2998 colon it was 6.47 µM.

The record behind these values is PubChem BioAssay (NCI).
